Target: G-protein coupled receptor 6 (Homo sapiens, UniProt P46095)
Assay: A.1 Inhibition of cAMP Activity of GPR6 In Vitro Assay: This cell based assay measures the ability of compounds to inhibit the constitutive cAMP activity of GPR6 receptor expressed in CHO-K1 cells. CHO cells were stably expressed with GPR6 receptor, whose expression is controlled by a tetracycline inducible element. The cells were cultured in medium containing F12K, 10% FBS, 1% Penn/Strep, 200 ug/mL Hygromycin. GPR6 receptor expression was induced for 20 hrs with 10 µg/ml doxycycline (sigma D9891) in growth media. After addition of doxycycline cells were plated at a density of 250-500 cells per well in half-volume black clear bottom plates (Costar) and place in an incubator (37°, 5% C(O)2) for 20 hours prior to cAMP assays.Culture media was removed from cells and they were washed with […] of Ringer's Buffer (MgCl2 0.047 mg/mL, NaH2PO4 0.18 mg/mL, Na2HPO4 0.1 mg/mL, KCl 0.34 mg/mL, NaHC(O)3 1.26 mg/mL, D-glucose 1.8 mg/mL, NaCl 7 mg/mL; pH=7.4). Compounds suspended in DMSO were diluted in Ringer's Buffer containing 0.5% fatty acid free BSA and incubated on cells for 45 min at 37° and 5% C(O)2. After incubation cells were incubated for 10 min at room temp with Eu-cAMP tracer solution from a Perkin Elmer Lance HTRF UltracAMP assay kit (TRF0264).

G-protein coupled receptor 6, sequence (P46095 whole entry): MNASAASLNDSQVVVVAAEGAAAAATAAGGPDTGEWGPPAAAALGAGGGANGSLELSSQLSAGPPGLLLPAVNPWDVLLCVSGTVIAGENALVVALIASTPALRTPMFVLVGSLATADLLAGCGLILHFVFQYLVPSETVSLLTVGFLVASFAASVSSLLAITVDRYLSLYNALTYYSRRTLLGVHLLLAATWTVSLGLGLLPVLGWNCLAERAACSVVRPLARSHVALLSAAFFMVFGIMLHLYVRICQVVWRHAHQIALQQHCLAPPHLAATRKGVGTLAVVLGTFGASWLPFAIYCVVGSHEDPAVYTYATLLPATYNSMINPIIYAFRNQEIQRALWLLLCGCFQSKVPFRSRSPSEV

CC(C)Nc1nc(COCCN(C)C)c(C#N)nc1N1CCN(Cc2ccc(F)cc2F)CC1
EC50: 62.5 µM

Source: ChEMBL document CHEMBL5726883, “Pyrazines as modulators of GPR6” (2019)
